Measured values from patent publication US7417045B2, “Heterocyclic substituted pyridine or phenyl compounds with CXCR3 antagonist activity” (Schering Corporation, priority 2005, dated 2008).

What follows are molecules tested against T1, human CXCR3 (N-delta 4) (Homo sapiens, UniProt P49682) (assay: Human CXCR3 (N-delta 4) Scintillation Proximity Assay (SPA), [125I] IP-10 binding). Conditions: IC50 rating; [125I] IP-10 displacement, Ba/F3-hCXCR3 (N-delta 4) membranes.
T1 construct: CD8 leader (N); Flag tag; expressed in transfected cells; membranes
T1 sequence (P49682 5-368 limits assumed): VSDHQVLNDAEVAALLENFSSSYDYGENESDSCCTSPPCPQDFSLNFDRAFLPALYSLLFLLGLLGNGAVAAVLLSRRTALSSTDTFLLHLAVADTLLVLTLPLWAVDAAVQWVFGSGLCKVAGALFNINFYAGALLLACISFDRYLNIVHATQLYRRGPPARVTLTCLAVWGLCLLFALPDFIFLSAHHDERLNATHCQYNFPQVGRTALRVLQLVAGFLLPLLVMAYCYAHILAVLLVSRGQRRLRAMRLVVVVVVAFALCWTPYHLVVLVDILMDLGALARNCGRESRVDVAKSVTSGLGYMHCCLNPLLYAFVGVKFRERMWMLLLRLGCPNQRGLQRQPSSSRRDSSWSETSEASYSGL
In short: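 Membranes from Ba/F3 cells stably expressing Flag-tagged human CXCR3 (N-delta 4), 2 μg per point, precoupled 1 h to WGA SPA beads in HEPES buffer with CaCl2, MgCl2, NaCl, 1.0% BSA. Compounds titrated with 25 pM [125I] IP-10; bound label counted after 3 hr at room temperature.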
With CC[C@H]1CN(c2ncc(-c3ncc[nH]3)cc2Cl)CCN1C1CCN(Cc2ccc(C#CC(C)(C)NS(=O)(=O)NC(=O)OC(C)(C)C)cc2)CC1 [Compound 143] the IC50 was greater than 100 nM.
For CC[C@H]1CN(c2ncc(C3=NCCN3)cc2Cl)CCN1C1CCN([C@@H](CO)c2ccc(Cl)cc2)CC1 [Compound 7], the IC50 was less than 25 nM.
With CC[C@H]1CN(c2ncc(C3=NCCN3)cc2Cl)CCN1C1CCN(Cc2ccc(Cl)cc2C(C)(C)O)CC1 [Compound 44] the IC50 was less than 25 nM.
CC[C@H]1CN(c2ncc(-c3ncc[nH]3)cc2Cl)CCN1C1CCN(Cc2ccc(Cl)cc2C(=O)NC)CC1 [Compound 53] was tested, and the IC50 was less than 25 nM.
CC[C@H]1CN(c2ncc(-c3ncc[nH]3)cc2Cl)CCN1C1CCN([C@H](C(=O)NC2CC2)c2ccc(Cl)cc2)CC1 [Compound 149] was tested, and the IC50 was greater than 100 nM.
Molecule CC[C@H]1CN(c2ncc(-c3nnn[nH]3)cc2Cl)CCN1C1CCN(Cc2ccc(Cl)cc2F)CC1 [Compound 169] has an IC50 greater than 100 nM.
For CC[C@H]1CN(c2ncc(-c3ncc[nH]3)cc2Cl)CCN1C1CCN([C@@H](C(=O)OC)c2ccc(Br)cc2)CC1 [Compound 40], the IC50 was less than 25 nM.
For CC[C@H]1CN(c2ncc(-c3ncc[nH]3)cc2Cl)CCN1C1CCN([C@@H](C(=O)NC)c2ccc(Cl)cc2)CC1 [Compound 66], the IC50 was less than 25 nM.
Molecule CC[C@H]1CN(c2ncc(-c3ncc[nH]3)cc2Cl)CCN1C1CCN(C(=O)c2ccc(Cl)nc2N)CC1 [Compound 46] has an IC50 of less than 25 nM.
Work on CC[C@H]1CN(c2ncc(-c3ncc[nH]3)cc2Cl)CCN1[C@H]1CCN(Cc2ccc(Cl)cc2C(=O)NC)C[C@@H]1O [Compound 172] yielded an IC50 greater than 100 nM.
Work on CC[C@H]1CN(c2ncc(-c3ncc[nH]3)cc2Cl)CCN1C1CCN(C(=O)c2ccc(N3CCCC3=O)cc2)CC1 [Compound 173] yielded an IC50 greater than 100 nM.
For CC[C@H]1CN(c2ncc(-c3ncc[nH]3)cc2Cl)CCN1C1CCN(C(=O)c2ccc(Cl)cc2N)CC1 [Compound 32], the IC50 was less than 25 nM.
CC[C@H]1CN(c2ncc(-c3nc4cc(F)ccc4[nH]3)cc2Cl)CCN1C1CCN(Cc2ccc(Cl)cc2F)CC1 [Compound 96] was tested, and the IC50 was less than 25 nM.
CC[C@H]1CN(c2ncc(-c3cnco3)cc2Cl)CCN1C1CCN(Cc2ccc(Cl)cc2)CC1 [Compound 108] was tested, and the IC50 was 25 to 100 nM.
Molecule CC[C@H]1CN(c2ncc(-c3cncn3C)cc2Cl)CCN1C1CCN(Cc2ccc(Cl)cc2)CC1 [Compound 115] has an IC50 of 25 to 100 nM.
Work on CC[C@H]1CN(c2ncc(-c3ncc[nH]3)cc2Cl)CCN1C1(C)CCN(C(CO)c2ccc(Cl)cc2)CC1 (stereo partly shown) [Compound 38] yielded an IC50 of less than 25 nM.
For CC[C@H]1CN(c2ncc(C3=NCCN3)cc2Cl)CCN1C1CCN(Cc2ccc(F)cc2)CC1 [Compound 11], the IC50 was less than 25 nM.
In the case of CC[C@H]1CN(c2ncc(-c3ncc[nH]3)cc2Cl)CCN1C1CCN(C(=O)C2(c3ccc(Cl)cc3)CC2)CC1 [Compound 154], the IC50 is reported as greater than 100 nM.
Work on CC[C@H]1CN(c2ncc(-c3nnc(CO)o3)cc2Cl)CCN1C1CCN(C(CO)c2ccc(Cl)cc2)CC1 (stereo partly shown) [Compound 39] yielded an IC50 of less than 25 nM.
Work on CC[C@H]1CN(c2ncc(-c3nnc(C(C)(C)OC(C)=O)o3)cc2Cl)CCN1C1CCN(Cc2ccc(Cl)cc2F)CC1 [Compound 141] yielded an IC50 greater than 100 nM.
CC[C@H]1CN(c2ncc(-c3ncc[nH]3)cc2Cl)CCN1C1CCN(C(=O)c2ccc(Cl)cc2)CC1 [Compound 47] gave an IC50 of less than 25 nM.
CC[C@H]1CN(c2ncc(C3=NCCN3)cc2Cl)CCN1C1CCN(Cc2ccc(C#CCOC)cc2)CC1 [Compound 34] showed an IC50 of less than 25 nM.
Molecule CC[C@H]1CN(c2ncc(C3=NCCN3)cc2Cl)CCN1C1CCN(Cc2ccc(Cl)cc2C#N)CC1 [Compound 51] has an IC50 of less than 25 nM.
In the case of CC[C@H]1CN(c2ncc(-c3ncc[nH]3)cc2Cl)CCN1C1CCN(Cc2ccc(OC(F)(F)F)cc2)CC1 [Compound 13], the IC50 is reported as less than 25 nM.
With CC[C@H]1CN(c2ncc(-c3ncc[nH]3)cc2Cl)CCN1C1CCN(C(=O)c2ccc(Cl)cc2C#N)CC1 [Compound 62] the IC50 was less than 25 nM.
In the case of CC[C@H]1CN(c2ncc(-c3ncc[nH]3)cc2Cl)CCN1C1CCN([C@@H](C(=O)NCC(F)(F)F)c2ccc(Cl)cc2)CC1 [Compound 99], the IC50 is reported as less than 25 nM.
For CC[C@H]1CN(c2ncc(C3=NCCN3)cc2Cl)CCN1C1CCN(Cc2ccc(C#CC(C)(C)O)cc2)CC1 [Compound 54], the IC50 was less than 25 nM.
For CC[C@H]1CN(c2ncc(-c3ncc[nH]3)cc2Cl)CCN1C1CCN(CCCC(=O)c2ccc(Cl)cc2)CC1 [Compound 83], the IC50 was less than 25 nM.
CC[C@H]1CN(c2ncc(-c3ncc[nH]3)cc2Cl)CCN1C1CCN(Cc2ccc(Cl)cc2)CC1 [Compound 1] showed an IC50 of less than 25 nM.
In the case of CC[C@H]1CN(c2ncc(-c3ncc[nH]3)cc2Cl)CCN1C1CCN(C(=O)c2ccc(C#CC(C)(C)NS(C)(=O)=O)cc2)CC1 [Compound 171], the IC50 is reported as greater than 100 nM.
CC[C@H]1CN(c2ncc(C3=NCCN3)cc2Cl)CCN1C1CCN(C(C(=O)OC)c2ccc(Cl)cc2)CC1 (stereo partly shown) [Compound 63] showed an IC50 of less than 25 nM.
In the case of CC[C@H]1CN(c2ncc(-c3nnc(C(C)(C)O)o3)cc2Cl)CCN1C1CCN(Cc2ccc(Cl)cc2F)CC1 [Compound 98], the IC50 is reported as less than 25 nM.
CC[C@H]1CN(c2ncc(-c3ncc[nH]3)cc2Cl)CCN1C1CCN(Cc2ccc(-c3ccccc3)cc2)CC1 [Compound 37] was tested, and the IC50 was less than 25 nM.
CC[C@H]1CN(c2ncc(-c3ncc[nH]3)cc2Cl)CCN1C1CCN([C@H](C(=O)NC)c2ccc(Cl)cc2)CC1 [Compound 166] was tested, and the IC50 was greater than 100 nM.
CC[C@H]1CN(c2ncc(C3=NCCN3)cc2Cl)CCN1C1CCN(Cc2ccc(C#N)cc2)CC1 [Compound 29] was tested, and the IC50 was less than 25 nM.
Work on CC[C@H]1CN(c2ncc(-c3ncc[nH]3)cc2Cl)CCN1C1CCN(C(=O)c2ccc(Cl)cc2O)CC1 [Compound 78] yielded an IC50 of less than 25 nM.
CC[C@H]1CN(c2ncc(-c3ncc[nH]3)cc2Cl)CCN1C1CCN(C(=O)c2ccc(OC(F)(F)F)cc2)CC1 [Compound 126] gave an IC50 of 25 to 100 nM.
With CC[C@H]1CN(c2ncc(-c3ncc[nH]3)cc2Cl)CCN1C1CCN(Cc2ccc(C#CC(C)(C)NC(=O)OC(C)(C)C)cc2)CC1 [Compound 101] the IC50 was less than 25 nM.
CC[C@H]1CN(c2ncc(-c3ncc[nH]3)cc2Cl)CCN1C1CCN(C(=O)c2ccc(-n3cncn3)cc2)CC1 [Compound 135] gave an IC50 greater than 100 nM.
CC[C@H]1CN(c2ncc(-c3ncc[nH]3)cc2Cl)CCN1C1CCN([C@H](CO)c2ccc(Cl)cc2)CC1 [Compound 90] showed an IC50 of less than 25 nM.
CC[C@H]1CN(c2ncc(-c3ncc[nH]3)cc2Cl)CCN1C1CCN(Cc2ccc(Cl)cc2C(C)(C)O)CC1 [Compound 31] gave an IC50 of less than 25 nM.
CC[C@H]1CN(c2ncc(C3=NCCN3)cc2Cl)CCN1C1CCN(C(=O)c2ccc(C#CC(C)(C)O)cc2)CC1 [Compound 104] gave an IC50 of 25 to 100 nM.
CC[C@H]1CN(c2ncc(-c3ncc[nH]3)cc2Cl)CCN1C1CCN([C@H](C(=O)OC)c2ccc(Br)cc2)CC1 [Compound 127] was tested, and the IC50 was 25 to 100 nM.
CC[C@H]1CN(c2ncc(C3=NCCN3)cc2Cl)CCN1C1CCN(C(=O)c2ccc(Br)cc2)CC1 [Compound 56] gave an IC50 of less than 25 nM.
For CC[C@H]1CN(c2ncc(-c3nnc(N)o3)cc2C(F)(F)F)[C@H](C)CN1C1CCN(Cc2ccc(OC(F)(F)F)cc2)CC1 [Compound 175], the IC50 was less than 25 nM.
In the case of CC[C@H]1CN(c2ncc(-c3ncc[nH]3)cc2Cl)CCN1C1CCN(Cc2ccc(Cl)cc2-c2ncon2)CC1 [Compound 48], the IC50 is reported as less than 25 nM.
CC[C@H]1CN(c2ncc(-c3ncc[nH]3)cc2Cl)CCN1C1CCN(C(=O)c2ccc(-c3ccccc3)cc2)CC1 [Compound 132] showed an IC50 greater than 100 nM.
CC[C@H]1CN(c2ncc(-c3ncc[nH]3)cc2Cl)CCN1C1CCN(C(=O)c2ccc(-n3cccc3)nc2)CC1 [Compound 81] gave an IC50 of less than 25 nM.

Same assay, conditions: [125I] IP-10 displacement, Ba/F3-hCXCR3 (N-delta 4) membranes
CC[C@H]1CN(c2ncc(-c3ncc[nH]3)cc2Cl)CCN1C1CCN(Cc2ccc(Cl)cc2)CC1 [Compound 1] showed an IC50 of 0.2 nM.
